Experimental data from patent publication US20110039762A1, “TARGETED ANTIMICROBIAL MOIETIES” (C3 JIAN, INC., priority 2009, published 2011).
Entries after “also recorded” stand apart in the source; their conditions may differ.

Key:
[1] = test system: microorganisms (e.g., bacteria, yeasts, fungi); experiment: Targeting peptide binding to target microorganisms (Table 3); details: preferably 1x PBS
microorganisms = experiment: Peptides having multiple activities (targeting/binding, antimicrobial, growth or phenotype altering)
Excerpt: In certain embodiments, peptides described herein can have multiple activities. Thus for example, a peptide can have both binding/targeting activity and antimicrobial activity. Such peptides can be used, e.g., in a chimeric construct, for any or all of these properties. Thus, for example, a peptide designated “B” in Table 8 can be used as a targeting peptide. If it is also designated G or M it can also be used for antimicrobial activity.

S. epidermidis = experiment: Kill or inhibit growth/proliferation; morphology, biofilm and growth disruption (Tables 5, 6); type: cell-based, Staphylococcus epidermidis; design: key: A: Peptide aggregates; B: Less hyphal formation; Clumps; Diffuse clumps and small polyps; F: Diffuse growth; H: Thin; I: Growth inhibition; Microcolony formation; Rippled; Small polyps; Thick; W: Halo formation on top, microlonies on bottom; also: test concentration or dose not given here
[2] = microorganism the targeting peptide binds, binding in aqueous buffers varied by peptide solubility
[3] = microorganism(s) the targeting peptide binds, binding in aqueous buffers depending on peptide solubility

Substance	Target(s) [1, 2]	Activities (microorganisms)	Organism, effect (S. epidermidis)	Target(s) [1, 3]
PF-009: peptide having multiple activities (chain 1 SKKYNHILNQENR; chain 2 SKKYNHILNQENR; Peptide with targeting and/or antimicrobial activity)	M. luteus; also recorded: P. mirabilis; also recorded: C. albicans	G B	S. epidermidis (S)	–
PF-034: peptide having multiple activities (chain 1 EPKKKHFPKMESASSEP; chain 2 EPKKKHFPKMESASSEP; Peptide with targeting and/or antimicrobial activity)	M. luteus	G B	S. epidermidis (A)	–
PF-123: peptide having multiple activities (TTRPQVAEDRQLDDALKETFPASDPISP; Peptide with targeting and/or antimicrobial activity)	–	G B	S. epidermidis (M)	M. luteus; also recorded: E. coli
PF-157: peptide having multiple activities (HTAVVWLAGVSGCVALSHCEPA; Peptide with targeting and/or antimicrobial activity)	–	G B	S. epidermidis (M)	–
PF-180: peptide having multiple activities (SGLGDLGFSSEAK; Peptide with targeting and/or antimicrobial activity)	–	G B	S. epidermidis (C)	S. epidermidis and M. luteus and P. aeruginosa and C. albicans and MRSA and E. faecalis and C. jejuni and M. smegmatis
PF-192: peptide having multiple activities (VEEDEAPPPHY; Peptide with targeting and/or antimicrobial activity)	–	G B	S. epidermidis (D)	S. epidermidis; also recorded: M. luteus; also recorded: P. aeruginosa; also recorded: C. albicans; also recorded: E. faecalis; also recorded: C. jeikeium
PF-233: peptide having multiple activities (DANAMARTTIAIVYILALIALTISYSL; Peptide with targeting and/or antimicrobial activity)	–	G B	S. epidermidis (C)	S. epidermidis; also recorded: M. luteus; also recorded: P. aeruginosa; also recorded: A. baumannii
PF-273: peptide having multiple activities (LVGALLIFVALIYMVLKGNADKN; Peptide with targeting and/or antimicrobial activity)	–	G B	S. epidermidis (C)	S. epidermidis; also recorded: M. luteus; also recorded: P. aeruginosa; also recorded: A. baumannii
PF-290 (MVHDMTNGTLIIVKH; Peptide with targeting and/or antimicrobial activity)	–	–	S. epidermidis (C)	–
PF-293 (YDPLK; Peptide with targeting and/or antimicrobial activity)	–	–	S. epidermidis (C)	–
PF-294: peptide having multiple activities (DFLVNFLWFKGELNWGKKRYK; Peptide with targeting and/or antimicrobial activity)	–	G B	S. epidermidis (C)	S. epidermidis; also recorded: C. difficile
PF-310 (GVALIGTILVPLLSGLFG; Peptide with targeting and/or antimicrobial activity)	–	–	S. epidermidis (C)	–
PF-313: peptide having multiple activities (YITSHKNARAIIKKFERDEILEEVITHYLNRK; Peptide with targeting and/or antimicrobial activity)	–	G B	S. epidermidis (C)	S. epidermidis; also recorded: C. difficile
